Common to all, as to type: biochemical
The nature of test [1]: Protease-catalyzed perhydrolysis of triacetin at pH 6.5 (Example 8). The settings on record: pH 6.5, 500 mM H2O2, 1 mg protease. Here is the method: The analytical procedure described by U. Karst et al. (Anal. Chem., 69 (17):3623-3627 (1997)) was employed, as described herein, for analysis of product mixtures containing peracid and hydrogen peroxide. Briefly, the concentration of peracetic acid (PAA) in analyzed samples ranged from 0.025 mM-10 mM, and the concentration of H2O2 ranged from 0.075 mM-3 mM. Reaction mixtures containing peracid and/or hydrogen peroxide were, if necessary prior to analysis, diluted to produce a concentration of peracid or peroxide in these ranges. Into a 4-mL vial was placed 0.100 mL of 20 mM methyl p-tolyl sulfide (MTS) in acetonitrile, 0.300 mL of distilled and deionized water (dd) and 0.100 mL of sample solution (undiluted or diluted with dd water by a factor of up to 1:25 for analysis of peracid), or 0.100 mL of 20 mM MTS in acetonitrile and 0.390 mL of dd water were added to 0.010 mL of a 1:10 dilution of sample solution (for analysis of hydrogen peroxide). After a reaction time of 10 minutes (in the dark, with no stirring), 0.400 mL CH3CN and 0.100 mL of 40-mM triphenylphosphine (TPP) in CH3CN were added to start the second derivatization reaction for detection of peroxide. The solution was left standing in the dark for 30 min to complete the assay reaction. At the end of 30 minutes, 0.100 mL of 10 mM N,N-diethyl-m-toluamide (DEET, HPLC external standard) was added and the resulting solution analyzed by HPLC: Supelco Discovery C8 10-cm column with pre-column, 10-μL injection, UV detection at 225 nm, solvent A: acetonitrile, solvent B: deionized water, 1 mL/min gradient as follows: […]
Into a 4-mL glass vial with stir bar was added 1 mg protease (Table 6) in 0.050 mL of 50 mM sodium phosphate buffer (pH 6.5), 0.900 mL of an aqueous mixture containing triacetin (278 mM) in 50 mM phosphate buffer (pH 6.5), and 0.052 mL 30% hydrogen peroxide (500 mM final concentration). After stirring for 5 or 30 minutes at 22° C., a 0.250 mL sample was filtered using a 30,000 NMWL filter (Millipore UltraFree-MC) centrifuged for 2 minute at 12,000 RPM. A portion of the filtered reaction samples was diluted 1:10 with dd water and analyzed for hydrogen peroxide, and the remaining portion of the sample was directly analyzed for peracid using the HPLC assay method (Table 9).

The nature of test [2]: Protease-catalyzed perhydrolysis of triacetin at pH 4.0 (Example 7). The settings on record: pH 4.0, 500 mM H2O2, 1 mg protease. Here is the method:
(§1) Into a 4-mL glass vial with stir bar was added 1 mg protease (Table 6) in 0.050 mL of 50 mM sodium acetate/acetic acid buffer (pH 4.0), 0.900 mL of an aqueous mixture containing triacetin (278 mM) in 50 mM sodium acetate/acetic acid buffer (pH 4.0), and 0.052 mL 30% hydrogen peroxide (500 mM final concentration). […] A portion of the filtered reaction samples was diluted 1:10 with dd water and analyzed for hydrogen peroxide, and the remaining portion of the sample was directly analyzed for peracid using the HPLC assay method (Table 8).

The nature of test [3]: Protease-catalyzed perhydrolysis of acetamide at pH 4.0 (Example 6). The settings on record: pH 4.0, 500 mM H2O2, 1 mg protease. Here is the method:
as §1, with “either a) acetamide (278 mM) in 50 mM sodium acetate/acetic acid buffer (pH 4.0) or b) diacetamide” for “triacetin”, “7).” for “8).”

Test [4] in a line: Protease-catalyzed perhydrolysis of diacetamide at pH 4.0 (Example 6). The settings on record: pH 4.0, 500 mM H2O2, 1 mg protease. Here is the method:
as §1, with “either a) acetamide (278 mM) in 50 mM sodium acetate/acetic acid buffer (pH 4.0) or b) diacetamide” for “triacetin”, “7).” for “8).”

Test [5] is described as follows: Protease-catalyzed perhydrolysis of diacetamide at pH 6.5 (Example 9). The settings on record: pH 6.5, 500 mM H2O2, 1 mg protease. Here is the method: (§2) Into a 4-mL glass vial with stir bar was added 1 mg protease (Table 6) in 0.050 mL of 50 mM potassium phosphate buffer (pH 6.5), 0.900 mL of an aqueous mixture containing either a) acetamide (278 mM) in 50 mM potassium phosphate buffer (pH 6.5) or b) diacetamide (278 mM) in 50 mM potassium phosphate buffer (pH 6.5), and 0.052 mL 30% hydrogen peroxide (500 mM final concentration). […] A portion of the filtered reaction samples was diluted 1:10 with dd water and analyzed for hydrogen peroxide, and the remaining portion of the sample was directly analyzed for peracid using the HPLC assay method (Table 10).

Test [6] is described as follows: Protease-catalyzed perhydrolysis of acetamide at pH 6.5 (Example 9). The settings on record: pH 6.5, 500 mM H2O2, 1 mg protease. On the procedure:
as §2

A short description of test [7]: Enzymatic perhydrolysis of triacetin using a combination of lipase and Neutrase at pH 4.0 and 6.5 (Example 24). The settings on record: triacetin 250 mM, H2O2 500 mM, 22° C. Here is the method:
Reaction mixtures were prepared containing 1 mg lipase (A “Amano” 12 (Amano), Validase AN (Valley Research), or ICR-110 (BioCatalytics)), and 20 μL Neutrase® (Novozymes) in 1.0 mL of 50 mM buffer (either sodium acetate/acetic acid buffer at pH 4.0, or potassium phosphate buffer at pH 6.5), additionally containing triacetin (250 mM) and hydrogen peroxide (500 mM). […] A portion of the filtered reaction samples was diluted 1:10 with dd water and analyzed for hydrogen peroxide, and the remaining portion of the sample was directly analyzed for peracid using the HPLC assay method (Table 29). Reactions were also run with lipase alone or Neutrase® alone for comparison of peracetic acid concentrations produced without the combination of lipase and Neutrase®.

Test [8] in a line: Enzymatic perhydrolysis of a mixture of diacetin (250 mM), triacetin (88 mM) and monoacetin (192 mM) using lipase and Neutrase at pH 4.0 and 6.5 (Example 25). The settings on record: monoacetin 192 mM, H2O2 500 mM, 22° C. Here is the method: Reaction mixtures were prepared containing 1 mg lipase (A “Amano” 12 (Amano), Validase AN (Valley Research), or ICR-110 (BioCatalytics)), and 20 μL Neutrase® (Novozymes) in 1.0 mL of 50 mM buffer (either sodium acetate/acetic acid buffer at pH 4.0, or potassium phosphate buffer at pH 6.5), additionally containing a mixture of diacetin (250 mM), triacetin (88 mM) and monoacetin (192 mM) and hydrogen peroxide (500 mM). After stirring for 5 or 30 minutes at 22° C., a 0.250-mL sample was filtered using a 30,000 NMWL filter (Millipore UltraFree-MC) centrifuged for 2 minutes at 12,000 RPM. A portion of the filtered reaction samples was diluted 1:10 with dd water and analyzed for hydrogen peroxide, and the remaining portion of the sample was directly analyzed for peracid using the HPLC assay method (Table 30). Reactions were also run with lipase alone or Neutrase® alone for comparison of peracetic acid concentrations produced without the combination of lipase and Neutrase®.

Take Pepsin: in test [1], the “triacetin (250 mM) peracetic acid (ppm), 5 min” value (from here on “triacetin … 5 min”) is reported as 111 ppm and the “triacetin (250 mM) peracetic acid (ppm), 30 min” value (from here on “triacetin … 30 min”) worked out at 163 ppm. Besides, in test [2], the “triacetin … 5 min” value was 65 ppm and the “triacetin … 30 min” value came out at 44 ppm. Further, in test [3], the “acetamide (250 mM) peracetic acid (ppm), 5 min” value was found to be 45 ppm and the “acetamide (250 mM) peracetic acid (ppm), 30 min” value is recorded as 65 ppm. Besides, in test [4], the “diacetamide (250 mM) peracetic acid (ppm), 5 min” value (shortened to “diacetamide … 5 min”) turned out to be 97 ppm and the “diacetamide (250 mM) peracetic acid (ppm), 30 min” value (“diacetamide … 30 min” for short) is recorded as 120 ppm. In test [5], the “diacetamide … 5 min” value is recorded as 259 ppm and the “diacetamide … 30 min” value is 198 ppm. Moreover, in test [6], the “acetamide (250 mM) peracetic acid (ppm), 5 min” value amounted to 81 ppm and the “acetamide (250 mM) peracetic acid (ppm), 30 min” value came to 67 ppm.

As for “Neutrase ®: Novozymes; a neutral protease from Bacillus amyloliquefaciens”, the “peracetic acid (ppm), 5 min” value came out at 0 ppm in test [7] (pH 4.0); 110 ppm in test [7] (pH 6.5); 50 ppm in test [8] (pH 4.0, 5 min); 50 ppm in test [8] (pH 6.5, 5 min). For the same substance, the “peracetic acid (ppm), 30 min” value is listed as 0 ppm in test [7] (pH 4.0); 300 ppm in test [7] (pH 6.5); 110 ppm in test [8] (pH 4.0, 30 min); 110 ppm in test [8] (pH 6.5, 30 min).

With “Chymopapain: Chymopapain, papaya latex, Sigma C8526”, in test [1], the “triacetin … 5 min” value amounted to 69 ppm and the “triacetin … 30 min” value was determined as 167 ppm. In test [2], the “triacetin … 5 min” value is given as 72 ppm and the “triacetin … 30 min” value came out at 57 ppm. In addition, in test [3], the “acetamide (250 mM) peracetic acid (ppm), 5 min” value is given as 66 ppm and the “acetamide (250 mM) peracetic acid (ppm), 30 min” value stood at 65 ppm. Besides, in test [4], the “diacetamide … 5 min” value amounted to 100 ppm and the “diacetamide … 30 min” value came to 131 ppm. In addition, in test [5], the “diacetamide … 5 min” value was found to be 218 ppm and the “diacetamide … 30 min” value was 170 ppm. In addition, in test [6], the “acetamide (250 mM) peracetic acid (ppm), 5 min” value is 94 ppm and the “acetamide (250 mM) peracetic acid (ppm), 30 min” value is recorded as 12 ppm.

For Bromelain, in test [1], the “triacetin … 5 min” value is reported as 161 ppm and the “triacetin … 30 min” value is 170 ppm. Moreover, in test [2], the “triacetin … 5 min” value amounted to 83 ppm and the “triacetin … 30 min” value was determined as 59 ppm. For the same substance, in test [3], the “acetamide (250 mM) peracetic acid (ppm), 5 min” value stood at 57 ppm and the “acetamide (250 mM) peracetic acid (ppm), 30 min” value was found to be 63 ppm. For the same substance, in test [4], the “diacetamide … 5 min” value was determined as 92 ppm and the “diacetamide … 30 min” value is 130 ppm. Besides, in test [5], the “diacetamide … 5 min” value turned out to be 311 ppm and the “diacetamide … 30 min” value is on record as 202 ppm. Also, in test [6], the “acetamide (250 mM) peracetic acid (ppm), 5 min” value is given as 108 ppm and the “acetamide (250 mM) peracetic acid (ppm), 30 min” value is recorded as 112 ppm.

Source of the values: patent publication US8063008B2, “Enzymatic production of peracids using perhydrolytic enzymes” (E. I. du Pont de Nemours and Company, priority 2005, dated 2011).
